Reference: article PMC9782470, “Clickable C-Glycosyl Scaffold for the Development of a Dual Fluorescent and [^18F]fluorinated Cyanine-Containing Probe and Preliminary In Vitro/Vivo Evaluation by Fluorescence Imaging” (Pharmaceuticals, 2022)

What was measured:
αvβ3 integrin = molecular target: T1, αvβ3 integrin (Homo sapiens, UniProt P05106+P06756); assay: Integrin αvβ3 solid-phase binding assay (competition with coated vitronectin); settings: coated human vitronectin 1 µg/mL, integrin αvβ3 2 µg/mL, compounds 1.6 nM–20 µM, 1 h room temperature, OD 450 nm, 3 independent series in duplicate, ± SD in Figure 2, read-out: IC50, binding of αvβ3 integrin onto vitronectin
T1 construct: purchased Bio-techne, Lille, France
Protocol: The affinity of the compounds for integrin protein was evaluated in terms of the half maximal inhibitory concentration (IC50 values) using a solid-phase assay, as previously described by Tobias G. Kapp et al.. Briefly, the surface of Maxisorp microplates (NUNC, ThermoFicher Scientific, Paris, France) was coated with 1 µg/mL human vitronectin (Bio-techne, Lille, France) overnight at +4 °C. The non-specific sites were blocked with a TSB buffer (20 mM Tris-HCl, 150 mM NaCl, 1 mM CaCl2, 1 mM MgCl2, 1 mM MnCl2, pH 7.5, 1% BSA) (Sigma-Aldrich, Saint-Quentin-Fallavier, France) for 1 h at 37 °C. […] After 1 h incubation at room temperature, the plates were washed, and the amount of bound integrin was stained by incubation with 2 µg/mL of mouse anti-human CD51/61 (BD Pharmingen, Paris, France) and 1 µg/mL of anti-mouse IgG horseradish peroxidase conjugate antibody (Bio-techne, France). The enzymatic reaction was carried out in the dark by the addition of the enzyme substrate (Bio-techne, France) and stopped after 10 min by the addition of H2SO4 (Stop Solution, Bio-techne, France). The optical densities were measured at 450 nm. The values were blank subtracted, and the results were expressed as relative absorbance percentage in comparison to the wells containing only integrin αvβ3.
Affinities were estimated from 3 independent series performed in duplicate as IC50 values (i.e., the concentration of the compounds that displaced 50% of integrin binding calculated using one-site fit log-IC50 non-linear analysis regression using the GraphPad Prism 6 software (v 6.05, USA)).
Figure 2 Solid-phase binding assay.

U-87 MG cells = assay: Cellular uptake, quantification of Cy5 incorporation; format: cell-based, human; settings: 24 h of incubation; Cy5 fluorescence of DMSO cell lysate (λex 645, λem 680 nm), calibration curve of each compound; n = 3
Protocol: Cellular uptake was evaluated using a confocal microscopy on U-87 MG spheroids after 1, 4, and 24 h of exposure with conjugates 23 and 24 and c(RGDfK)-Cy5 (25) at 1 µM. The fluorescence signal appeared to be stable over time and the distribution of the compounds was homogeneous over all cells and throughout the spheroids (Figure 3A). These three compounds were localized rapidly in the cell cytoplasm due to receptor internalization after ligand binding. As expected from photophysical properties, the fluorescence signal was higher for compound 24 compared to 23. […] The amount of compounds seemed to decrease slightly at 4 h but stayed relatively stable until 24 h and represented 25.8, 14.7, and 28.6 pmoles/10^6 cells, respectively, for compounds 23, 24 and 25. […]
U-87 MG cells were seeded in 12 multi-well plates at 10 × 10^4 cells/cm^2 and cultivated for 48 h. […] The fluorescence signals of Cy5 in the samples were measured in duplicate at an excitation wavelength of 645/9 nm and an emission wavelength of 680/20 nm (Tecan Infinite M200 Pro spectrofluorometer, Tecan, Männedorf, Switzerland). The fluorescence signals of known concentrations of Cy5-conjugates diluted in DMSO were used to draw a standard calibration curve. The concentration of Cy5 present in the samples (nM) was determined from the linear regression analysis of the standard calibration curve (Equation (1)). […] The results of the cellular uptake were expressed as the concentration of Cy5 (nM) incorporated per one million of cells (Equation (2)). […] (nM) = f (Fluorescence Intensity)(1) [Cy5] […]
Figure 3 Cellular uptake of fluorescent conjugates 23 and 24. […] The intrinsic fluorescence of the compounds corresponds to Cyanine 5 (red fluorescence, λex 631/28 nm, λem 692/40 nm). […] (B) Quantification of Cy5 incorporation by U-87 MG cells at 1, 4, and 24 h of incubation. The amount of each compound was calculated using the fluorescence of Cy5 extrapolated from the calibration curves of each compound and normalized to 10^6 cells. n = 3.

[1] = Absorption and fluorescence measurements; format: physicochemical; settings: for relative fluorescence quantum yield Φfluo: PBS pH 7.4, relative to commercial Cy5.Cl, λex = 640 nm, absorbance lower than 0.1; for Stokes shift Δs fluo / λem / λabs: aqueous PBS buffer 0.01 M, pH 7.4, T = 298 K; for λabs: diluted solution (µM)
Protocol: Photophysical properties (absorption, excitation, emission, and relative fluorescence quantum yield) of compounds 23 and 24 were measured in an aqueous PBS buffer solution (pH = 7.4, T = 298 K) and compared to the commercially available Cy5 to detect any potential degradation that could occur during the synthesis and purification steps. […] (λabs/λem = 648/662 nm, Δs fluo = 326 cm^−1 for 23, λabs/λem = 644/658 nm, Δs fluo = 330 cm^−1 for 24).
Absorption spectra were recorded in diluted solution (µM) in an aqueous PBS buffer (0.01 M, pH 7.4). Fluorescence quantum yields Φfluo were measured in diluted solutions with an absorbance lower than 0.1 using the following equation: ϕfluo, x=ϕfluo,ref(Gradx/Gradref)(nx2/nref2) where Φfluo is the fluorescence quantum yield; Grad is the gradient from the plot of integrated fluorescence intensity vs. absorbance; n the refractive index of the solvent; and the subscripts x and ref denote sample and reference. The fluorescence quantum yields of 23 and 24 were measured relative to the commercial Cy5.Cl in PBS for which Φfluo,ref = 0.13 [36]. The excitation of the reference and sample compounds was performed at the same wavelength (λex = 640 nm).

[2] = Solubility in aqueous solution; format: physicochemical; settings: result in words
ectopic U-87 MG tumors = format: in vivo, female athymic nude mice
Protocol: (§1) In order to evaluate the in vivo biodistribution and tumor uptake of compound 24, which has the best photophysical and solubility properties in comparison to compound 23, mice bearing ectopic or orthotopic brain tumors were imaged in NIRF using a fluorescent small animal imager. […] Animal experiments were performed in accordance with the protocols approved by the French Ministry of Research after a review by the local animal protection and use committee (APAFIS# 30902). For ectopic tumor biodistribution, a U-87 MG tumor model was established by subcutaneous injection of U-87 MG cells (2 × 10^6 in 100 µL of 5% glucose solution) into the front right flank of female athymic nude mice (Charles Rivers, Wilmington, MA, USA). The mice were subjected to imaging studies when the tumor volume reached 500 mm^3 (3–4 wk after inoculation) at 1, 4, 6, and 24 h after the intravenous administration of the compounds 24 and 25 at 0.5 nmoles in 100 µL of water for injections mixed with ethanol (20% EtOH/80% water). For brain tumor imaging, U-87 MG spheroids of approximatively 500 µm diameter were implanted in the cortex of the right hemisphere and imaged 24 h after the administration of 0.5 nmoles of the compound 24 or 25. In the same manner, major organs were harvested and subjected to small animal NIRF imaging (Fluorvivo, Indec Biosystem, Los Altos, CA, USA). A customized filter set (excitation, 510–550 nm; emission, 630–690 nm) was used for data acquisition. All fluorescence images were acquired with a 1-s exposure. The fluorescence intensity of each tissue was measured after subtraction of the background signal from an ROI of the same size and shape drawn over an area without any tissue using imageJ. Figure 4 Biodistribution of compounds 24 and 25 in tumors and organs. (A) Kinetic distribution of compounds 24 and 25 in ectopic U-87 MG tumors at 1, 4, 6, and 24 h (representative images of the whole mice with the solid arrows showing the ectopic tumors at 24 h). (B) Biodistribution of the compounds in major organs at 24 h after their administration. […] An average of ratio uptake was calculated. […]

[3] = tested on: orthotopic U-87 MG brain tumor; format: in vivo, female athymic nude mice; settings: 24 h after intravenous administration of 0.5 nmoles; NIRF imaging; average of ratio uptake
Protocol: as §1

[4] = cited from earlier work
Protocol: Photophysical properties (absorption, excitation, emission, and relative fluorescence quantum yield) of compounds 23 and 24 were measured in an aqueous PBS buffer solution (pH = 7.4, T = 298 K) and compared to the commercially available Cy5 to detect any potential degradation that could occur during the synthesis and purification steps. […] (λabs/λem = 648/662 nm, Δs fluo = 326 cm^−1 for 23, λabs/λem = 644/658 nm, Δs fluo = 330 cm^−1 for 24). Conjugation of the ... || Absorption spectra were recorded in diluted solution (µM) in an aqueous PBS buffer (0.01 M, pH 7.4). Fluorescence quantum yields Φfluo were measured in diluted solutions with an absorbance lower than 0.1 using the following equation: ϕfluo, x=ϕfluo,ref(Gradx/Gradref)(nx2/nref2) where Φfluo is the fluorescence quantum yield; Grad is the gradient from the plot of integrated fluorescence intensity vs. absorbance; n the refractive index of the solvent; and the subscripts x and ref denote sample and reference. The fluorescence quantum yields of 23 and 24 were measured relative to the commercial Cy5 ...

Row | SMILES | IC50 (αvβ3 integrin) | amount of compound incorporated by U-87 MG cells (U-87 MG cells) | relative fluorescence quantum yield Φfluo [1] | Stokes shift Δs fluo [1] | λem [1] | λabs [1] | solubility in aqueous solution [2] | ratio of fluorescence uptake, ectopic tumor to healthy brain (ectopic U-87 MG tumors; 24 h after intravenous administration of 0.5 nmoles, NIRF imaging, average of ratio uptake) | route of elimination (ectopic U-87 MG tumors; mouse, in vivo) | ratio of fluorescence uptake, orthotopic brain tumor to healthy brain [3] | fluorescence quantum yield Φfluo of the reference ([4]; PBS) | fluorescence quantum yield Φfluo,ref ([4]; in PBS, as fraction)
1 | CN1\C(=C/C=C/C=C/C2=[N+](CCCCCC(=O)NCCCn3cc(COCC[C@H]4O[C@H](CF)[C@@H](OCc5cn(CCCCCC(=O)NCCCC[C@@H]6NC(=O)[C@@H](Cc7ccccc7)NC(=O)[C@H](CC(=O)O)NC(=O)CNC(=O)[C@H](CCCNC(=N)N)NC6=O)nn5)[C@H]4OCc4cn(CCCCCC(=O)NCCCC[C@@H]5NC(=O)[C@@H](Cc6ccccc6)NC(=O)[C@H](CC(=O)O)NC(=O)CNC(=O)[C@H](CCCNC(=N)N)NC5=O)nn4)nn3)c3ccccc3C2(C)C)C(C)(C)c2ccccc21 [Compound 23] | 10 nM | 25.8 pmoles/10^6 cells | 8% | 326 cm⁻¹ | 662 nm | 648 nm | poor solubility | – | – | – | – | –
2 | CN1\C(=C/C=C/C=C/C2=[N+](CCCCCC(=O)NCCCn3cc(COCC[C@H]4O[C@H](CF)[C@@H](OCc5cn(CCOCCOCCOCCOCCC(=O)NCCCC[C@@H]6NC(=O)[C@@H](Cc7ccccc7)NC(=O)[C@H](CC(=O)O)NC(=O)CNC(=O)[C@H](CCCNC(=N)N)NC6=O)nn5)[C@H]4OCc4cn(CCOCCOCCOCCOCCC(=O)NCCCC[C@@H]5NC(=O)[C@@H](Cc6ccccc6)NC(=O)[C@H](CC(=O)O)NC(=O)CNC(=O)[C@H](CCCNC(=N)N)NC5=O)nn4)nn3)c3ccccc3C2(C)C)C(C)(C)c2ccccc21 [Compound 24] | 16 nM | 14.7 pmoles/10^6 cells | 14% | 330 cm⁻¹ | 658 nm | 644 nm | – | 100 fold | urinary tract and liver metabolism | 40 fold | – | –
3 | CN1C(=CC=CC=CC2=[N+](CCCCCC(=O)NCCCC[C@@H]3NC(=O)[C@@H](Cc4ccccc4)NC(=O)[C@H](CC(=O)O)NC(=O)CNC(=O)[C@H](CCCNC(=N)N)NC3=O)c3ccccc3C2(C)C)C(C)(C)c2ccccc21 [Compound 25] | 8540 nM | 28.6 pmoles/10^6 cells | – | – | – | – | – | – | – | – | – | –
4 | CN1/C(=C/C=C/C=C/C2=[N+](CCCCCC(=O)O)c3ccccc3C2(C)C)C(C)(C)c2ccccc21 [Cy5] | – | – | – | – | – | – | – | – | – | – | 13% | 0.13
